Data published in PubChem BioAssay (NCI).
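Grown in 96-well plates, cells were treated for 48 hours with each compound at five concentrations. Insufficient inhibition: endpoint recorded as highest concentration tested. At the TGI there is no net growth.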

What was measured:
Experiment in all cases: DTP human tumour cell line panel, 48 h
[1] = tested on: K-562 leukemia
[2] = tested on: SK-MEL-2 melanoma
[3] = tested on: OVCAR-5 ovarian
[4] = tested on: HOP-62 NSCLC
[5] = tested on: MDA-MB-231 breast
[6] = tested on: MDA-MB-435
[7] = tested on: MCF7 breast
[8] = tested on: DU-145 prostate
[9] = tested on: BT-549 breast
[10] = tested on: SK-MEL-5 melanoma
[11] = tested on: HS 578T breast
[12] = tested on: IGROV1 ovarian
[13] = tested on: RXF 393 renal
[14] = tested on: MALME-3M melanoma
[15] = tested on: NCI/ADR-RES ovarian
[16] = tested on: T-47D breast
[17] = tested on: PC-3 prostate
[18] = tested on: HCT-15 colon
[19] = tested on: MDA-N
[20] = tested on: SR leukemia
[21] = tested on: HT29 colon
[22] = tested on: TK-10 renal
[23] = tested on: A498 renal
[24] = tested on: SW-620 colon
[25] = tested on: UO-31 renal
[26] = tested on: HCC-2998 colon
[27] = tested on: HOP-92 NSCLC
[28] = tested on: OVCAR-8 ovarian
[29] = tested on: NCI-H226 lung
[30] = tested on: RPMI-8226 leukemia
[31] = tested on: UACC-257 melanoma
[32] = tested on: HCT-116 colon
[33] = tested on: CCRF-CEM leukemia
[34] = tested on: SK-MEL-28 melanoma
[35] = tested on: MOLT-4 leukemia
[36] = tested on: COLO 205 colon
[37] = tested on: U251 CNS
[38] = tested on: NCI-H23 lung
[39] = tested on: NCI-H460 lung
[40] = tested on: SN12C renal
[41] = tested on: SF-295 CNS
[42] = tested on: OVCAR-3 ovarian
[43] = tested on: LOX IMVI melanoma
[44] = tested on: KM12 colon
[45] = tested on: UACC-62 melanoma
[46] = tested on: CAKI-1 renal
[47] = tested on: SNB-75 CNS
[48] = tested on: SK-OV-3 ovarian
[49] = tested on: SNB-19 CNS
[50] = tested on: M14 melanoma
[51] = tested on: OVCAR-4 ovarian
[52] = tested on: HL-60(TB) leukemia
[53] = tested on: EKVX NSCLC
[54] = tested on: ACHN renal
[55] = tested on: A549 NSCLC
[56] = tested on: 786-0 renal
[57] = tested on: SF-268 CNS
[58] = tested on: NCI-H522 lung
[59] = tested on: SF-539 CNS

## Nc1nccc2c1ncn2[C@H]1C[C@H](O)[C@@H](CO)O1
[1]
  TGI: > 100 µM
[2]
  TGI: > 100 µM
[3]
  TGI: > 100 µM
[4]
  TGI: > 100 µM
[5]
  TGI: > 100 µM
[6]
  TGI: > 100 µM
[7]
  TGI: > 100 µM
[8]
  TGI: > 100 µM
[9]
  TGI: > 100 µM
[10]
  TGI: > 100 µM
[11]
  TGI: > 100 µM
[12]
  TGI: > 100 µM
[13]
  TGI: > 100 µM
[14]
  TGI: > 100 µM
[15]
  TGI: > 100 µM
[16]
  TGI: > 100 µM
[17]
  TGI: > 100 µM
[18]
  TGI: > 100 µM
[19]
  TGI: > 100 µM
[20]
  TGI: > 100 µM
[21]
  TGI: > 100 µM
[22]
  TGI: > 100 µM
[23]
  TGI: > 100 µM
[24]
  TGI: > 100 µM
[25]
  TGI: > 100 µM
[26]
  TGI: > 100 µM
[27]
  TGI: > 100 µM
[28]
  TGI: > 100 µM
[29]
  TGI: > 100 µM
[30]
  TGI: > 100 µM
[31]
  TGI: > 100 µM
[32]
  TGI: > 100 µM
[33]
  TGI: > 100 µM
[34]
  TGI: > 100 µM
[35]
  TGI: > 100 µM
[36]
  TGI: > 100 µM
[37]
  TGI: > 100 µM
[38]
  TGI: > 100 µM
[39]
  TGI: > 100 µM
[40]
  TGI: > 100 µM
[41]
  TGI: > 100 µM
[42]
  TGI: > 100 µM
[43]
  TGI: > 100 µM
[44]
  TGI: > 100 µM
[45]
  TGI: > 100 µM
[46]
  TGI: > 100 µM
[47]
  TGI: > 100 µM
[48]
  TGI: > 100 µM
[49]
  TGI: > 100 µM
[50]
  TGI: > 100 µM
[51]
  TGI: > 100 µM

## COc1cc(C=C(c2ccc(N(C)C)cc2)c2ccc(N(C)C)cc2)c2ccccc2c1OC
[1]
  TGI: > 100 µM
[2]
  TGI: > 100 µM
[52]
  TGI: > 100 µM
[3]
  TGI: > 100 µM
[53]
  TGI: > 100 µM
[4]
  TGI: > 100 µM
[5]
  TGI: > 100 µM
[6]
  TGI: > 100 µM
[7]
  TGI: > 100 µM
[8]
  TGI: > 100 µM
[9]
  TGI: > 100 µM
[10]
  TGI: > 100 µM
[54]
  TGI: > 100 µM
[11]
  TGI: > 100 µM
[12]
  TGI: > 100 µM
[13]
  TGI: > 100 µM
[14]
  TGI: > 100 µM
[15]
  TGI: > 100 µM
[16]
  TGI: > 100 µM
[17]
  TGI: > 100 µM
[18]
  TGI: > 100 µM
[55]
  TGI: > 100 µM
[19]
  TGI: 40.7 µM
[20]
  TGI: > 100 µM
[21]
  TGI: > 100 µM
[22]
  TGI: > 100 µM
[25]
  TGI: > 100 µM
[26]
  TGI: > 100 µM
[27]
  TGI: > 100 µM
[28]
  TGI: > 100 µM
[29]
  TGI: > 100 µM
[30]
  TGI: > 100 µM
[31]
  TGI: > 100 µM
[32]
  TGI: > 100 µM
[33]
  TGI: > 100 µM
[34]
  TGI: > 100 µM
[35]
  TGI: > 100 µM
[36]
  TGI: > 100 µM
[37]
  TGI: > 100 µM
[38]
  TGI: > 100 µM
[56]
  TGI: > 100 µM
[39]
  TGI: > 100 µM
[40]
  TGI: > 100 µM
[41]
  TGI: > 100 µM
[42]
  TGI: 74 µM
[43]
  TGI: > 100 µM
[44]
  TGI: > 100 µM
[45]
  TGI: > 100 µM
[46]
  TGI: > 100 µM
[47]
  TGI: > 100 µM
[48]
  TGI: > 100 µM
[49]
  TGI: > 100 µM
[57]
  TGI: > 100 µM
[50]
  TGI: > 100 µM
[58]
  TGI: > 100 µM
[51]
  TGI: > 100 µM

## O=C1C=CC(O)(C#CCO)C=C1
[1]
  TGI: > 100 µM
[2]
  TGI: 33.2 µM
[52]
  TGI: 15.8 µM
[3]
  TGI: 26.9 µM
[53]
  TGI: 40.3 µM
[4]
  TGI: 71.7 µM
[5]
  TGI: 33.7 µM
[6]
  TGI: 26.9 µM
[7]
  TGI: 18.5 µM
[8]
  TGI: 31.6 µM
[9]
  TGI: 26.7 µM
[10]
  TGI: > 100 µM
[54]
  TGI: 26.6 µM
[11]
  TGI: > 76.5 µM
[12]
  TGI: 25.6 µM
[13]
  TGI: 10.8 µM
[15]
  TGI: 30.3 µM
[16]
  TGI: 41.6 µM
[17]
  TGI: 31.8 µM
[18]
  TGI: 10.1 µM
[55]
  TGI: > 60.2 µM
[19]
  TGI: 23 µM
[20]
  TGI: > 100 µM
[21]
  TGI: 29.7 µM
[22]
  TGI: 25.8 µM
[23]
  TGI: 46 µM
[24]
  TGI: 15.3 µM
[25]
  TGI: 32.3 µM
[26]
  TGI: 31.3 µM
[27]
  TGI: 5.8 µM
[28]
  TGI: 39.7 µM
[29]
  TGI: 28.1 µM
[30]
  TGI: 22 µM
[31]
  TGI: 27.7 µM
[32]
  TGI: > 53.9 µM
[33]
  TGI: 62.2 µM
[34]
  TGI: 25.5 µM
[35]
  TGI: > 100 µM
[36]
  TGI: > 50.2 µM
[37]
  TGI: 23.8 µM
[38]
  TGI: 34.5 µM
[56]
  TGI: > 42 µM
[39]
  TGI: 48.8 µM
[40]
  TGI: 30.6 µM
[41]
  TGI: > 100 µM
[59]
  TGI: 30.8 µM
[42]
  TGI: 31 µM
[43]
  TGI: 23.3 µM
[44]
  TGI: 32.6 µM
[45]
  TGI: 29.3 µM
[46]
  TGI: 10.8 µM
[47]
  TGI: 37.4 µM
[48]
  TGI: > 100 µM
[49]
  TGI: > 56.8 µM
[57]
  TGI: 34.1 µM
[50]
  TGI: 44 µM
[58]
  TGI: 4.16 µM
[51]
  TGI: 25.9 µM
